Measured values published in PMC5722318, “Absence of anti-hypocretin receptor 2 autoantibodies in post pandemrix narcolepsy cases” (PLoS ONE, 2017).
Where two headings read alike, the source gives them in different places.

Tested on: DQ0602
Type: binding, human
Details: for % Read #1 / Read #1: replicate 1; for % Average: mean of two reads; for % Read #2 / Read #2: replicate 2; for Average: mean of the two raw reads; for Read #1 / Read #2: raw signal read
[1] = % of Bio-EBV binding, first assay (02/04/2016, 07/15/2016 or 08/11/2016, by peptide)
[2] = % of Bio-EBV binding, repeat assay (07/19/2016, 07/18/2016 or 08/12/2016, by peptide)
[3] = first assay (02/04/2016, 07/15/2016 or 08/11/2016, by peptide)
[4] = repeat assay (07/19/2016, 07/18/2016 or 08/12/2016, by peptide)

| Sequence | Average (two assays) [%] | mean of Bio-EBV epitope binding ± SD (40 μM competitor peptide, 25 nM DQ0602, 100 nM HLA-DM, 1 μM Bio-EBV, acetate pH 4.6, 3 days at 37°C, duplicate, Eu-streptavidin TRF, lower percentage = stronger competitor) | % Read #1 (% of Bio-EBV binding (Bio-EBV average = 100), first assay (02/04/2016, 07/15/2016 or 08/11/2016, by peptide)) [%] | % Average [1] [%] | % Average [2] [%] | % Read #1 [2] [%] | % Read #2 [1] [%] | % Read #2 [2] [%] | Average [3] | Average [4] | Read #1 (first assay (02/04/2016, 07/15/2016 or 08/11/2016, by peptide), competition against Bio-EBV epitope) | Read #1 [4] | Read #2 [3] | Read #2 [4] | binding to DQ0602 (in words) (competition with Bio-EBV epitope, 40 μM peptide, […]) |
| --- | --- | --- | --- | --- | --- | --- | --- | --- | --- | --- | --- | --- | --- | --- | --- |
| HDSNKGVTAACPH [HA143-155 146N, synthetic 13-mer hemagglutinin peptide containing wild-type 146N] | 43.7826 | 43.78% ± 1.34% | 41.1935 | 42.8329 | 44.7324 | 43.7047 | 44.4722 | 45.7602 | 8060.5 | 7464.5 | 7752 | 7293 | 8369 | 7636 | – |
| YDDEEFLRYLWR [HCRTR2_34-45] | – | – | – | – | – | – | – | – | – | – | – | – | – | – | did not appear to bind to DQ0602 |
